Reference: US20030088061A1, “Materials and methods to modulate ligand binding/enzymatic activity of alpha/beta proteins containing an allosteric regulatory site” (priority 2000, published 2003)
Where two headings read alike, the source gives them in different places.

Biological target: T1, αEβ7 (Homo sapiens, UniProt P26010+P38570)
T1 construct: DNA encoding full-length alpha E was identified as follows; expressed in transfected cells; host or cells: JY cells, plasmid pMHneo/aE
T1 sequence (P38570 19-1179): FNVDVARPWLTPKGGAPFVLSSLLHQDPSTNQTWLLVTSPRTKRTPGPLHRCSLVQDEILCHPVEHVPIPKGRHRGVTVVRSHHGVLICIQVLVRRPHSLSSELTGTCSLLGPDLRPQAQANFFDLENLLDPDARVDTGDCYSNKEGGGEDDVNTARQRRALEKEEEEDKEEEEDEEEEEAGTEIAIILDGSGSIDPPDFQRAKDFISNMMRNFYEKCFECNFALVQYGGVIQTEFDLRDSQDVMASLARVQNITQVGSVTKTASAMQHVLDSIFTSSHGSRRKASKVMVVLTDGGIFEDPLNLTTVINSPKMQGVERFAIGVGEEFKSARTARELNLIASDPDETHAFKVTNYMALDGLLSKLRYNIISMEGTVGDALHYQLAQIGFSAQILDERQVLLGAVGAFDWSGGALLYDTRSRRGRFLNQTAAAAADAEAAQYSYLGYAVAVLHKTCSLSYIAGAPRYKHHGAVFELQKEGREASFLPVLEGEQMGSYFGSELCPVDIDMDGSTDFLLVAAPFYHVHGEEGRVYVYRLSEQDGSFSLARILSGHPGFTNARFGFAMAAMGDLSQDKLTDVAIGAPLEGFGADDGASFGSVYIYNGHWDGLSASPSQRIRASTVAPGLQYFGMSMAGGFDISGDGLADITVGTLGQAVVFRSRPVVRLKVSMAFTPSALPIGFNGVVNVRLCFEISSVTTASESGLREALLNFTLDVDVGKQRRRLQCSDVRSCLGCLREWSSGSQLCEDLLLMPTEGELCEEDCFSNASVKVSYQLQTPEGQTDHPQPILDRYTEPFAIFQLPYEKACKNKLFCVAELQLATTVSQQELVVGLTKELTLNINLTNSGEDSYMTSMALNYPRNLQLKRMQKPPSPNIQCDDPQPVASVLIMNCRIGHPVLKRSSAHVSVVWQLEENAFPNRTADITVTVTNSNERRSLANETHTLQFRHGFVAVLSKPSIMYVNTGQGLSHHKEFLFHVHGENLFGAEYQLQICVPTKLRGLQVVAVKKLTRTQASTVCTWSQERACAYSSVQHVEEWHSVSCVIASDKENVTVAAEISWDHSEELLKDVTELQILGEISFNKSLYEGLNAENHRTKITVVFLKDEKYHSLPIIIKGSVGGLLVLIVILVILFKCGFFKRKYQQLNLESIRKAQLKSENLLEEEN
T1 sequence (P26010 20-798 partner): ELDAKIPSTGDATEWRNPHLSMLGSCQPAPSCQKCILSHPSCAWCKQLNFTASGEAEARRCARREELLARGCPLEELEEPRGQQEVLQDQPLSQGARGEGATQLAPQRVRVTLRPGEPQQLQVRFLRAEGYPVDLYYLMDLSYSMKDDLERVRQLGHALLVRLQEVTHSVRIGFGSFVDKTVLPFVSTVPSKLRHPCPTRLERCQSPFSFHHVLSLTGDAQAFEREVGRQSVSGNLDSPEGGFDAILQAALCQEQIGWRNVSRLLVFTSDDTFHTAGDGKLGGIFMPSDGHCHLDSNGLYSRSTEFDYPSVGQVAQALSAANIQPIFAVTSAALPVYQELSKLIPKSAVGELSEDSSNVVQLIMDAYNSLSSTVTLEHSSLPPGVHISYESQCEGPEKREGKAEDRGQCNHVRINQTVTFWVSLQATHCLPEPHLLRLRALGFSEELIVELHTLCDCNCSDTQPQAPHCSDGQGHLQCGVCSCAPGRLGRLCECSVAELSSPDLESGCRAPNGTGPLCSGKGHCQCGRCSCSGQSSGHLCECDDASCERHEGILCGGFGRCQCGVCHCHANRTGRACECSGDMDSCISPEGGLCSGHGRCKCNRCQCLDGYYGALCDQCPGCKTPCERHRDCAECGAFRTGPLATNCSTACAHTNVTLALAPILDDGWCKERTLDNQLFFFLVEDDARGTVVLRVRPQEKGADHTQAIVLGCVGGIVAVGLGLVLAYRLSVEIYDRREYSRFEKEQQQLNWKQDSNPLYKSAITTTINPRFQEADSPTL
Experiment: JY/aE+ cell adhesion to E-cadherin/Ig
Assay type: cell-based
Protocol: Adhesion media (350 μl) (RPMI 1640 containing penicillin and streptomycin, L-glutamine, NaPy, and 5% FBS) was aliquotted into each well in rows A, C, E, G of a deepwell 96-well titer plate, 2.0 ml capacity (Beckman Instruments, Inc., Fullerton, Calif.) in columns 1-11. All compounds to be screened were dissolved in DMSO to a final concentration of 10 mM. Compounds were stored at −20° C., and thawed on the day of use in a 37° C. incubator. Each compound (2.1 μl) was pipetted into a single well in columns 3-11, rows A, C, E, and G in the deepwell titer plate. To wells not containing compound (A1 & A2, C1 & C2, E1 & E2, G1 & G2), 2.1 μl DMSO was added. An anti-β7 monoclonal antibody, FIB504 (ATCC, Rockville, Md.), which blocks αEβ7 binding activity, was added to wells C2 and G2 at a concentration of 7.5 μg/ml. Each deepwell titer plate was covered to prevent dessication and stored in a 37° C. incubator until ready for use.
Adhesion assays were performed in 96-well Immunlon 4 plates (Dynex Technologies, Inc., Chantilly, Va.) as follows. Each well was coated with 50 μl E-cadherin/Ig (3.0 μg/ml) in D-PBS. Control wells were coated with capture antibody FIB504, to quantitate 100% input cell binding, or coating buffer alone to determine background binding. Following an overnight incubation at 4° C., the plates were washed three times with 200 μl/well D-PBS and blocked with 1% BSA in D-PBS for at least 1 hour. The BSA solution was removed and 100 μl of adhesion media (RPMI 1640 containing penicillin and stretomycin, L-glutamine, sodium pyruvate, 0.1% BSA, and 60 ng/ml PMA), was added to rows B through G, columns 1 through 11.
At this point, 100 μl adhesion media containing a test compound at a concentration of 60 μM, was transferred from the deepwell 96-well titer plate, in triplicate, to the E-cadherin/Ig coated adhesion plate. The outer rows were filled with 300 μl of D-PBS. These plates were transferred to a humidified 37° C. incubator with an atmosphere of 5% CO2.
The adhesion assay was initiated by addition of 100 μl of the JY/aE^+ cell suspension to each well of the E-cadherin-coated plate. The final volume in each well was 300 μl adhesion media containing […], PMA (final concentration 20 ng/ml), and the test compound (final concentration 20 μM). The plates were incubated at 37° C. for 30 min. Each compound was tested in triplicate.
Adherent cells were fixed by the addition of 50 μl of a 14% glutaraldehyde solution in D-PBS. Plates were washed with water, stained with 100 μl/well 0.5% crystal violet (Sigma Corp., St. Louis, Mo.) solution for 5 min. Three hundred microliters/well of 70% ethanol was added, and adherent cells were quantitated by determining absorbance at 570 nm. Percentage of cell binding was determined by using the mean values for each triplicate in a given assay in the following formula. [formula]
During the initial screening of test compounds, each chemical entity was tested in cell-based adhesion assays at a fixed concentration of 20 μM. Those compounds that blocked JY/αEβ7-dependent adhesion to E-cadherin/Ig by 50% or more were subsequently retested at multiple concentrations to determine the inhibitory concentration at which cell binding is reduced by 50%, i.e., the IC50 value.
For each IC50 assay, 50 μl of the ligand diluted in 50 mM bicarbonate buffer (pH 9.6) was dispensed per well of an Immulon-4 plate. A single plate was used to test two different ligands, each in triplicate, The coating concentration for the various ligands was as follows: VCAM-1/Ig at 2.0 μg/ml; ICAM-1/Ig at 5.0 μg/ml; vitronectin at 0.5 μg/ml; MAdCAM-1/Ig at 3.0 μg/ml, and iC3b at 5.0 μg/ml. The capture antibody, e.g. anti-CD18 monoclonal antibody TS1/22, was added at a concentration of 10 μg/ml in 50 μl/well. Ligand-coated plates were covered and stored overnight at 4° C. The following day, the contents of each well was decanted, and each plate was washed three times with 200 μl/well D-PBS. […]

[1] = PMA-treated JY cells, read-out: E-cadher αEβ7 IC50
[2] = reproducible inhibitory activity on re-analysis, read-out: IC50, inhibition of JY/aE+ binding to E-cadherin

Row | SMILES | IC50 [1] [µM] | IC50 [2] [µM]
1 | CC(=O)Oc1ccccc1C(=O)n1c(-c2ccccc2)cc2ccccc21 [Cmpd D] | 3 | < 10
2 | O=C(NCc1cccnc1)c1ccccc1C(=O)Nc1sc2ccccc2c1Cl [Cmpd K] | 3 | < 10
3 | Nc1ccc(Sc2ccc(NC(=O)CCc3ccccc3)cc2)c(Cl)c1 [Cmpd W] | 5 | < 10
4 | CC(CN(C)C)NCc1ccccc1Sc1ccc(C(C)(C)C)cc1 (centres unmarked) [Cmpd Z] | 3 | < 10
